Experimental data from PMC12390684 (Viruses, 2025).
Like-named read-outs stand apart in the source and are kept apart here.

Experiments:
HIV-1Laï = test: microbe, parasite or virus in culture; type: cell-based; details: for EC50: Human immunodeficiency virus 1, MAGI, 24 h infection, read-out: EC50
[1] = Cytotoxicity (CellTiter 96 AQueous); type: cell-based; details: human
[2] = molecular target: IN-GCN2 interaction (6xHis-IN / GST-GCN2) (UniProt P04585+Q9P2K8); test: biochemical; type: binding, HIV-1 IN; human GCN2; details: for IC50: SAR study, fresh dilutions from powder, at least three independent experiments; for IN-GCN2 interaction (%): screen, single dose 100 µM, single replicate, residual AlphaLISA signal normalized to DMSO control
IN-GCN2 interaction (6xHis-IN / GST-GCN2), sequence (Q9P2K8 192-1024, other chains not shown): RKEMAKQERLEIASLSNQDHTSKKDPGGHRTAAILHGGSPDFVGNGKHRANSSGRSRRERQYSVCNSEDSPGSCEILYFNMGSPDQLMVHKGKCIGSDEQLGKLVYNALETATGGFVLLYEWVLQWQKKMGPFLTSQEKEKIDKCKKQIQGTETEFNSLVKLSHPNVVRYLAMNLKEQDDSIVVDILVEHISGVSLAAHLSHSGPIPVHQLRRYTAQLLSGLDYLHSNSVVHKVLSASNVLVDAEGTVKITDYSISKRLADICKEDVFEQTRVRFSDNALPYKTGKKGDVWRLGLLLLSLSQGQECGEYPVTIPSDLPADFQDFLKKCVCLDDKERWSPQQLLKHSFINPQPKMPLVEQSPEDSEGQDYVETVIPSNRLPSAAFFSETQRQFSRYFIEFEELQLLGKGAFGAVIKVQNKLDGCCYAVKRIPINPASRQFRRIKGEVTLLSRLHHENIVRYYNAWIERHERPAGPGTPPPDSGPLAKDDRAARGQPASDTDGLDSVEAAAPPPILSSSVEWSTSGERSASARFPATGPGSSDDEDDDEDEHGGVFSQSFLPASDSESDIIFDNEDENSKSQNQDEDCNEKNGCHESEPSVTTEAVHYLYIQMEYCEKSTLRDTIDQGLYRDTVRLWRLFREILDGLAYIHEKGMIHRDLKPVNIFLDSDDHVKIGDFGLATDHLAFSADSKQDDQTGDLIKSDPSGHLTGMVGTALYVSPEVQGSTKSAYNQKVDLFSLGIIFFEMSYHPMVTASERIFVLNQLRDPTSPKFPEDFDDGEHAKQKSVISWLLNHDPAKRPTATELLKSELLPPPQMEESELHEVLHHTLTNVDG

[3] = P4 MAGI CCR5+ cells, 24 h, read-out: CC50
[4] = IC50, inhibition of IN-GCN2 interaction

| SMILES | IC50 [2, 4] [µM] | IN-GCN2 interaction (%) [2] [%] | also measured |
| --- | --- | --- | --- |
| O=C1c2c(O)ccc(O)c2C(=O)c2c(NCCCCCO)ccc(NCCCCCO)c21 [Compound 2k] | 12.2 | – | EC50 (HIV-1Laï; 24 h): > 5 µM; CC50 at 24 h [1, 3]: > 5 µM |
| COc1cc2c(cc1OC)-c1c3c(cc4c1[C@H](C2)N(C)CC4)OCO3 [Compound 3e] | 73 | – | EC50 (HIV-1Laï; 24 h): > 5 µM; CC50 at 24 h [1]: > 5 µM |
| NC(CS)C(=O)NCCNc1ccc(NCCNC(=O)C(N)CS)c2c1C(=O)c1c(O)ccc(O)c1C2=O (centres unmarked) [Compound 2f] | 6.4 | – | CC50 at 24 h [1, 3]: 3.48 µM |
| COc1ccc2c(c1OC)-c1c3c(cc4c1C(C2)N(C)CC4)OCO3 (centres unmarked) [Compound 3j] | > 100 | – | CC50 at 24 h [1]: > 5 µM |
| COc1cc2c(cc1OC)c1c(OC)c(OC)cc3c1c1c2sc(=S)n1CC3 [Compound 3a] | 24 | – | CC50 at 24 h [1, 3]: > 5 µM |
| CC[C@@]1(O)C[C@H](O[C@H]2C[C@H](N(C)C)[C@H](O[C@H]3C[C@H](O)[C@H](O[C@H]4CCC(=O)[C@H](C)O4)[C@H](C)O3)[C@H](C)O2)c2c(cc3c(c2O)C(=O)c2c(O)cccc2C3=O)[C@H]1C(=O)OC [Compound 1k] | – | 28.46 | CC50 ([1]; 24 h, read-out: CC50): 0.114 µM |
| CCCCCCCCCCCCCCCCCC(=O)OCC(=O)OCC(=O)C1(O)Cc2c(O)c3c(c(O)c2C(OC2CC(N)C(O)C(C)O2)C1)C(=O)c1c(OC)cccc1C3=O (centres unmarked) [Compound 1m] | 20.6 | – | CC50 at 24 h [1, 3]: > 5 µM |
| CN(C)CCCCNc1ccc(NCCCCN(C)C)c2c1C(=O)c1c(O)ccc(O)c1C2=O [Compound 2j] | – | – | CC50 at 24 h [1, 3]: > 5 µM; IC50 ([2]; read-out: IC50, inhibition of IN-GCN2 interaction): 11.4 µM |
| CCC1(O)CC(OC2CC(N(C)C)C(O)C(C)O2)c2c(O)c3c(c(O)c2C1OC1CC(N(C)C)C(O)C(C)O1)C(=O)c1cccc(O)c1C3=O (centres unmarked) [Compound 1e] | – | 17.07 | CC50 ([1]; 24 h, read-out: CC50): 0.724 µM |
| COc1cc2ccc3c(c2cc1OC)N(C)C(OC)c1cc2c(cc1-3)OCO2 (centres unmarked) [Compound 3m] | > 100 | – | CC50 ([1]; 24 h, read-out: CC50): > 5 µM |
| COc1cccc2c1C(=O)c1c(O)c3c(c(O)c1C2=O)CC(O)(C(C)=O)CC3OC1CC(N(C)C)C(O)C(C)O1 (centres unmarked) [Compound 1o] | 43.7 | – | CC50 at 24 h [1]: 0.256 µM |
| COc1cc2c(cc1OC)-c1c(OC)c(OC)cc3c1C(C2)N(C)CC3 (centres unmarked) [Compound 3k] | > 100 | 124.35 | CC50 ([1]; 24 h, read-out: CC50): > 5 µM; effect on IN-GCN2 interaction in dose-response, in words ([2]; dose-response assessment): inactive |
| CCC1(O)CC(OC2CC(N(C)C)C(O)C(C)O2)c2c(cc3c(c2O)C(=O)c2c(O)ccc(O)c2C3=O)C1C(=O)OC (centres unmarked) [Compound 1c] | 1.4 | – | CC50 ([1]; 24 h, read-out: CC50): 0.589 µM |
| CC(=O)[C@]1(O)Cc2c(O)c3c(c(O)c2[C@@H](O[C@H]2C[C@H](N)[C@H](O)[C@H](C)O2)C1)C(=O)c1c(O)cccc1C3=O [Compound 1d] | – | – | CC50 [1]: 0.04 µM |
| CCC1(O)CC(OC2CC(N(C)C)C(OC3CC4OC5CC(=O)C(C)OC5OC4C(C)O3)C(C)O2)c2c(cc3c(c2O)C(=O)c2c(O)ccc(O)c2C3=O)C1C(=O)OC (centres unmarked) [Compound 1a, cinerubin B] | – | – | EC50 (HIV-1Laï): 0.494 µM; CC50 ([1]; 24 h, read-out: CC50): > 5 µM |
| COC(=O)[C@@H]1c2cc3c(c(O)c2[C@@H](O[C@@H]2O[C@@H](C)[C@H](OC)[C@@](C)(OC)[C@H]2OC)C[C@]1(C)O)C(=O)c1c(O)cc2c(c1C3=O)O[C@@H]1O[C@@]2(C)[C@H](O)[C@@H](N(C)C)[C@@H]1O [Compound 1j] | 8.88 | – | CC50 at 24 h [1]: 0.311 µM |
| CCC1(O)CC(OC2CC(N)C(O)C(C)O2)c2c(O)c3c(c(O)c2C1C(=O)OC)C(=O)c1cccc(O)c1C3=O (centres unmarked) [Compound 1b] | 0.917 | – | CC50 ([1]; 24 h, read-out: CC50): > 5 µM |
| O=C1CC(c2ccc(O)c(-c3c(O)cc4c(c3O)C(=O)CC(c3ccc(O)cc3)O4)c2)Oc2cc(O)cc(O)c21 (centres unmarked) [Compound 2c] | > 100 | – | CC50 at 24 h [1, 3]: > 5 µM |
| Clc1ccc2nc3ccccc3cc2c1 [Compound 2n] | > 100 | – | CC50 at 24 h [1, 3]: > 5 µM |
| COc1cc2c(c(OC)c1OC)CC1c3c(cc4c(c3-2)OCO4)CCN1C (centres unmarked) [Compound 3c] | 54 | – | CC50 at 24 h [1]: > 5 µM; fold decrease in activity compared to NSC785155 ([2]; IC50 ratio): 10 fold |
| COc1ccc2c(c1)CC1c3c(cc4c(c3-2)OCO4)CCN1C (centres unmarked) [Compound 3h] | > 100 | – | CC50 ([1]; 24 h, read-out: CC50): > 5 µM |
| COc1cc2c(cc1OC)-c1c3c(cc4c1C(C2)N(C)CC4)OCO3 (centres unmarked) [Compound 3g] | 92 | – | viral replication, maximum, relative to DMSO control (HIV-1Laï; dose-dependent increase (pro-viral effect)): up to 150% |
| CCN(CC)C1CC(OC2CC(O)(C(=O)CO)Cc3c(O)c4c(c(O)c32)C(=O)c2c(OC)cccc2C4=O)OC(C)C1O (centres unmarked) [Compound 1n] | 29.4 | – | CC50 ([1]; 24 h, read-out: CC50): 0.512 µM |
| CCN1C[C@]2(COC)[C@H](O)C[C@H](OC)[C@@]34[C@@H]5C[C@@]6(O)[C@H](OC(=O)c7ccccc7)[C@@H]5[C@@](OC(C)=O)([C@@H]([C@H](OC)[C@H]23)[C@@H]14)[C@@H](O)[C@@H]6OC [NSC56464] | – | 148.00 | – |
| COc1ccc(CC2=NCCc3cc(OC)c(OC)cc32)cc1OC.O=C(O)C(=O)O [NSC35550] | – | 110.36 | – |

| SMILES | IC50 [2, 4] [µM] | IN-GCN2 interaction (%) [2] [%] | also measured |
| --- | --- | --- | --- |
| N#Cc1cn([C@@H]2O[C@H](CO)[C@@H](O)[C@H]2O)c2ncnc(N)c12 [NSC63701] | – | – | IN-GCN2 interaction (%) ([2]; listed as 63701): 116.97% |
| N=C1C=C(N)C(=O)c2[nH]c(=O)ccc21 [NSC111041] | – | 43.78 | – |
| COc1ccc2[nH]c3c(C)c4ccncc4c(C)c3c2c1 [NSC69187] | – | 42.76 | – |
| CSC[S@@+]([O-])CC(CO)NC(=O)/C=C/c1c(C)[nH]c(=O)[nH]c1=O (some centres unmarked) [NSC59729] | – | 102.04 | – |
| C[C@@H]1O[C@@H](O[C@@H]2C=C3CC[C@@H]4[C@H](CC[C@]5(C)[C@@H](c6ccc(=O)oc6)CC[C@]45O)[C@@]3(C)CC2)[C@H](O)[C@H](O)[C@H]1O[C@@H]1O[C@H](CO)[C@@H](O)[C@H](O)[C@H]1O [NSC7525] | – | 99.88 | – |
| CC[C@H]1CN2CCc3cc(OC)c(OC)cc3[C@@H]2C[C@@H]1C[C@H]1NCCc2cc(O)c(OC)cc21 [NSC32944] | – | 81.67 | – |
| O=C1CC=C2C3CC4N(CCC45c4ccccc4N1C25)C/C3=C\CO (centres unmarked) [NSC99791] | – | 109.54 | – |
| O=C(O)/C=C(/CC(=O)O)C(=O)O [NSC7616] | – | 85.71 | – |
| CC1=CC(O)C(O)C2(C)C1CC1OC(=O)C(O)C3C(C)C(O)C4(O)OCC13C42 (centres unmarked) [NSC14974] | – | 90.88 | – |
| COC1=CC(=O)OC(CCc2ccc3c(c2)OCO3)C1 (centres unmarked) [NSC23878] | – | 70.38 | – |
| C=C1[C@@H](C)[C@H]2[C@H](Cc3ccccc3)NC(=O)C23[C@H](OC(C)=O)/C=C/[C@@](C)(O)C[C@@H](C)C/C=C/[C@H]3[C@@H]1O (some centres unmarked) [NSC305222] | – | 109.95 | – |
| CO[C@H]1C[C@@H]2\C=C(C)/C=C/C=C\C(=O)N[C@H](c3ccccc3)C/C=C/CC[C@H](O)CC(=O)C2=C1O [NSC343256] | – | 61.66 | – |
| COc1cc2c3c(c1O)C1(C=CC(=O)C=C1)CC3N(C)CC2 (centres unmarked) [Compound 3l] | > 100 | – | CC50 at 24 h [1, 3]: > 5 µM |
| CC(C)(O)[C@@H]1[C@H]2OC(=O)[C@@H]1[C@]1(O)C[C@H]3O[C@]34C(=O)O[C@H]2[C@]14C [NSC129536] | – | 112.62 | – |
| COC(=O)[C@H]1[C@H]2C[C@H]3c4[nH]c5ccccc5c4CCN3C[C@@H]2CC[C@@H]1O [NSC407306] | – | 114.25 | – |
| COc1c(OC)c(OC)c2c3c(cc4ccccc42)NC(=O)C(=O)c13 [NSC785151] | – | 48.18 | – |
| COc1ccc2c(c1O)-c1cccc3c1[C@@H](C2)N(C)CC3 [NSC785152] | – | 66.28 | – |
| O=C1C[C@@H]2OCC=C3C[N+]4([O-])CC[C@]56c7ccccc7N1[C@H]5[C@H]2[C@H]3C[C@@H]64 (some centres unmarked) [NSC24951] | – | 106.44 | – |
| CN1CCc2cc3c(c4c2[C@H]1Cc1ccccc1-4)OCO3 [NSC785164] | – | 64.36 | – |
| CC(=O)O[C@H]1C[C@H](O[C@H]2[C@@H](O)C[C@H](O[C@H]3[C@@H](O)C[C@H](O[C@H]4CC[C@@]5(C)[C@H](CC[C@@H]6[C@@H]5CC[C@]5(C)[C@@H](C7=CC(=O)OC7)CC[C@]65O)C4)O[C@@H]3C)O[C@@H]2C)O[C@H](C)[C@H]1O[C@@H]1O[C@H](CO)[C@@H](O)[C@H](O)[C@H]1O [NSC7532] | – | 117.74 | – |
| O=c1oc2cc(O)ccc2c2oc3cc(O)ccc3c12 [NSC22842] | – | 123.61 | – |
| COc1c(O)cc2oc3cc(O)c(CC=C(C)C)c(O)c3c(=O)c2c1CC=C(C)C [NSC30552] | – | 60.59 | – |
| O=C1N[C@@H]2C(=C[C@H](O)[C@@H](O)[C@H]2O)c2cc3c(cc21)OCO3 [NSC349155] | – | 100.93 | – |
| O=C1C[C@@H]2OCC=C3CN4CC[C@]56c7ccccc7N1[C@H]5[C@H]2[C@H]3C[C@]46O [NSC99792] | – | 109.08 | – |
